Measurements published in patent US11613531B2, “Inhibitors of RHO associated coiled-coil containing protein kinase” (Kadmon Corporation, LLC, priority 2017, dated 2023).
“And” between values parts separate entries of the source, which are not always exact repeats. Equal values may be shown once.

target: Recombinant ROCK2 (amino acids 1-552) (Homo sapiens (Human), UniProt O75116); assay: Z′-Lyte kinase assay, ROCK2; type: biochemical; details: not given
Summary of the method: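 IC50s derive from nonlinear curve fits over a 9-point, 2-fold dilution series, with single-point inhibition at 1 μM expressed relative to DMSO. Activity of truncated human ROCK1 (residues 1-535) and ROCK2 (residues 1-552) measured with the Z′-Lyte kinase format.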

Recombinant ROCK2 (amino acids 1-552), sequence (O75116 1-552): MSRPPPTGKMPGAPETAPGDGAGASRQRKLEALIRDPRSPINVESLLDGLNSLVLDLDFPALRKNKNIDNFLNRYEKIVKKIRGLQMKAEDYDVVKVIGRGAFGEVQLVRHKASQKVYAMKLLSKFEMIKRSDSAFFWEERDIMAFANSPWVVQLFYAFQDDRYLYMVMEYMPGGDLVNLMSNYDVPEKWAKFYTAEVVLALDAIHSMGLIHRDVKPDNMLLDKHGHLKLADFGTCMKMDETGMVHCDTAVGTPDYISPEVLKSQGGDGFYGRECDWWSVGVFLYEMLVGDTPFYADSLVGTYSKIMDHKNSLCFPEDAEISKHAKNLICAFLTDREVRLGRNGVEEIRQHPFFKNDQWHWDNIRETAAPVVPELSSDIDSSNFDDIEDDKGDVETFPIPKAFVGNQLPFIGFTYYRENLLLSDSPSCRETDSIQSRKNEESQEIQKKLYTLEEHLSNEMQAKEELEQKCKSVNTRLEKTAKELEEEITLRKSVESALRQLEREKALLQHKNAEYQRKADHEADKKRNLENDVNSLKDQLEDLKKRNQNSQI

SMILES | IC50 [nM]
N[C@@H]1CCN(c2nccc(Nc3ccc4[nH]ncc4c3)n2)C1 [Example 231, (R)—N-(2-(3-aminopyrrolidin-1-yl)pyrimidin-4-yl)-1H-indazol-5-amine] | 276
COc1cccc(CNC2CCCN(c3nccc(Nc4ccc5[nH]ncc5c4)n3)C2)c1 (centres unmarked) [Example 233, N-(2-(3-((3-methoxybenzyl)amino)piperidin-1-yl)pyrimidin-4-yl)-1H-indazol-5-amine] | 217

same assay, conditions: 0.5 μM compound; read-out: ROCK2 % inh. @ [conc]

SMILES | inhibition at 0.5 µM [%]
CCCC1CNCCN1c1nccc(Nc2ccc3[nH]ncc3c2)n1 (centres unmarked) [Example 69, N-(2-(2-propylpiperazin-1-yl)pyrimidin-4-yl)-1H-indazol-5-amine] | 52
CC1CN(c2ncc(Cl)c(Nc3ccc4[nH]ncc4c3)n2)CC(C)N1 (centres unmarked) [Example 189, N-(5-chloro-2-(3,5-dimethylpiperazin-1-yl)pyrimidin-4-yl)-1H-indazol-5-amine] | 14
Cc1cnc(N2CCNCC(C)C2)nc1Nc1ccc2[nH]ncc2c1 (centres unmarked) [Example 196, N-(5-methyl-2-(6-methyl-1,4-diazepan-1-yl)pyrimidin-4-yl)-1H-indazol-5-amine] | 39

same assay, conditions: 3 μM compound; read-out: ROCK2 % inh. @ [conc]

SMILES | inhibition at 3 µM [%]
CC1CCN(c2nccc(Nc3ccc(-c4ccncc4)cc3)n2)CCN1 (centres unmarked) [Example 45, 2-(5-methyl-1,4-diazepan-1-yl)-N-(4-(pyridin-4-yl)phenyl)pyrimidin-4-amine] | 98.8

same assay, conditions: 9 points 2-fold serial dilution

SMILES | IC50 [nM]
CC1CCN(c2nccc(Nc3ccc(-c4ccncc4)cc3)n2)CCN1 (centres unmarked) [Example 45, 2-(5-methyl-1,4-diazepan-1-yl)-N-(4-(pyridin-4-yl)phenyl)pyrimidin-4-amine] | 649

tested on: ppMlc (T18/S19) levels in A7R5 cells; assay: A7R5 in-cell ELISA (pMLC); type: cell-based, Rat; details: A7R5 cells, 10 μM compound
Summary of the method: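 Cellular IC50 came from a nonlinear regression fit of ppMlc (T18/S19) signal, read by colorimetric in-cell ELISA on fixed cells. Rat A7R5 aortic smooth muscle cells had been exposed for 90 min to compounds in 9-point 2-fold serial dilution, 24 h after seeding.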

SMILES | pMLC % inh A7R5 @ [conc]
N[C@@H]1CCN(c2nccc(Nc3ccc4[nH]ncc4c3)n2)C1 [Example 231, (R)—N-(2-(3-aminopyrrolidin-1-yl)pyrimidin-4-yl)-1H-indazol-5-amine] | 94.24, % and 63.4%

same assay, conditions: Rattus norvegicus, A7R5, A7R5 cells

SMILES | IC50 [nM]
N[C@@H]1CCN(c2nccc(Nc3ccc4[nH]ncc4c3)n2)C1 [Example 231, (R)—N-(2-(3-aminopyrrolidin-1-yl)pyrimidin-4-yl)-1H-indazol-5-amine] | 335
COc1cccc(CNC2CCCN(c3nccc(Nc4ccc5[nH]ncc5c4)n3)C2)c1 (centres unmarked) [Example 233, N-(2-(3-((3-methoxybenzyl)amino)piperidin-1-yl)pyrimidin-4-yl)-1H-indazol-5-amine] | 712

same assay, conditions: Rattus norvegicus, A7R5, A7R5 cells, 1 μM compound; read-out: pMLC % inh A7R5 @ [conc]

SMILES | inhibition at 1 µM [%]
CCCC1CNCCN1c1nccc(Nc2ccc3[nH]ncc3c2)n1 (centres unmarked) [Example 69, N-(2-(2-propylpiperazin-1-yl)pyrimidin-4-yl)-1H-indazol-5-amine] | 19.3
Cc1cnc(N2CCNCC(C)C2)nc1Nc1ccc2[nH]ncc2c1 (centres unmarked) [Example 196, N-(5-methyl-2-(6-methyl-1,4-diazepan-1-yl)pyrimidin-4-yl)-1H-indazol-5-amine] | 17.6

same assay, conditions: Rattus norvegicus, A7R5, A7R5 cells, 10 μM compound; read-out: pMLC % inh A7R5 @ [conc]

SMILES | inhibition at 10 µM [%]
CC1CN(c2ncc(Cl)c(Nc3ccc4[nH]ncc4c3)n2)CC(C)N1 (centres unmarked) [Example 189, N-(5-chloro-2-(3,5-dimethylpiperazin-1-yl)pyrimidin-4-yl)-1H-indazol-5-amine] | 33.4
COc1cccc(CNC2CCCN(c3nccc(Nc4ccc5[nH]ncc5c4)n3)C2)c1 (centres unmarked) [Example 233, N-(2-(3-((3-methoxybenzyl)amino)piperidin-1-yl)pyrimidin-4-yl)-1H-indazol-5-amine] | 95.1

same assay, conditions: Rattus norvegicus, A7R5, A7R5 cells, ppMlc (T18/S19)

SMILES | IC50 [nM]
CC1CCN(c2nccc(Nc3ccc(-c4ccncc4)cc3)n2)CCN1 (centres unmarked) [Example 45, 2-(5-methyl-1,4-diazepan-1-yl)-N-(4-(pyridin-4-yl)phenyl)pyrimidin-4-amine] | 2120
CC1CN(c2ncc(Cl)c(Nc3ccc4[nH]ncc4c3)n2)CC(C)N1 (centres unmarked) [Example 189, N-(5-chloro-2-(3,5-dimethylpiperazin-1-yl)pyrimidin-4-yl)-1H-indazol-5-amine] | 637

target: Recombinant ROCK1 (amino acids 1-535) (Homo sapiens (Human), UniProt Q13464); assay: Z′-Lyte kinase assay, ROCK1; type: biochemical; details: not given
Sequence (Q13464 1-535): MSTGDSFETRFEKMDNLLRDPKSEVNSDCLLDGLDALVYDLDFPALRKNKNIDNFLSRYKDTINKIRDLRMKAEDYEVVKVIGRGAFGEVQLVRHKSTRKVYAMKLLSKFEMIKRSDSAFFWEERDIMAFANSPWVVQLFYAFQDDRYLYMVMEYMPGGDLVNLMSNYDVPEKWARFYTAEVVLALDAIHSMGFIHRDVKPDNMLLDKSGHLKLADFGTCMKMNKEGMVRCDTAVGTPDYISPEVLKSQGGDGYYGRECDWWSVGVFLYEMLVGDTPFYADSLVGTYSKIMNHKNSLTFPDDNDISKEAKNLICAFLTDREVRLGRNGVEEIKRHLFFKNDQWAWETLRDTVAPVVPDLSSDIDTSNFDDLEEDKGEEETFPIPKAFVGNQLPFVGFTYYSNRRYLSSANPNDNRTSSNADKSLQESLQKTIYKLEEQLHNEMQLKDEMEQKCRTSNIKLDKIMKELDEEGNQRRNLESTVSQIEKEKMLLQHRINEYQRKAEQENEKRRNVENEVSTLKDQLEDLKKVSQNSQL
Experimental: Determination of Compound's ROCK Inhibitory Activity In Vitro (Z'Lyte Assay).
Recombinant ROCK1 (amino acids 1-535) and ROCK2 (amino acids 1-552) proteins were purchased from ThermoFisher Scientific. Compound's activities were measured by Z′-lyte kinase kit (ThermoFisher Scientific) and IC50 was calculated
In vitro activities for the compounds were measured with Z′-lyte kinase kit (ThermoFisher Scientific). The percent inhibition rate was calculated by normalizing the kinase activity value obtained with 1 μM compound treatment against DMSO control value and then applied to the formula, [1-(compound/DMSO)]×100%. IC50s were calculated using the nonlinear regression curve fit function of the GraphPad Prism software with kinase activities data measured with 9 points 2-fold serial dilution of compounds treatment. In cell pMLC IC50s were calculated with data obtained from A7R5 cell experiments. A7R5 cells were treated with 9 points 2-fold serial dilution of compounds and ppMlc (T18/S19) levels were determined to calculate cellular IC50 values of the compounds using the nonlinear regression curve fit function of the GraphPad Prism software. NIH3T3 cells stably expressing ACTA2-promoter-driven-luciferase were applied to measure ROCK compounds functional IC50s in cells. Cells were plated in 96 well plates to confluence and treated with 9 points serial dilution of compounds in combination with TGFβ1 for 24 hr. Luciferase activities were measured and compound's IC50s were calculated using the nonlinear regression curve fit function of the GraphPad Prism software.

SMILES | IC50 [µM]
N[C@@H]1CCN(c2nccc(Nc3ccc4[nH]ncc4c3)n2)C1 [Example 231, (R)—N-(2-(3-aminopyrrolidin-1-yl)pyrimidin-4-yl)-1H-indazol-5-amine] | > 10
COc1cccc(CNC2CCCN(c3nccc(Nc4ccc5[nH]ncc5c4)n3)C2)c1 (centres unmarked) [Example 233, N-(2-(3-((3-methoxybenzyl)amino)piperidin-1-yl)pyrimidin-4-yl)-1H-indazol-5-amine] | > 10

same assay, conditions: 0.5 μM compound; read-out: ROCK1 % inh. @ [conc]

SMILES | inhibition at 0.5 µM [%]
CCCC1CNCCN1c1nccc(Nc2ccc3[nH]ncc3c2)n1 (centres unmarked) [Example 69, N-(2-(2-propylpiperazin-1-yl)pyrimidin-4-yl)-1H-indazol-5-amine] | 67
CC1CN(c2ncc(Cl)c(Nc3ccc4[nH]ncc4c3)n2)CC(C)N1 (centres unmarked) [Example 189, N-(5-chloro-2-(3,5-dimethylpiperazin-1-yl)pyrimidin-4-yl)-1H-indazol-5-amine] | 18
Cc1cnc(N2CCNCC(C)C2)nc1Nc1ccc2[nH]ncc2c1 (centres unmarked) [Example 196, N-(5-methyl-2-(6-methyl-1,4-diazepan-1-yl)pyrimidin-4-yl)-1H-indazol-5-amine] | 37

same assay, conditions: 3 μM compound; read-out: ROCK1 % inh. @ [conc]

SMILES | inhibition at 3 µM [%]
CC1CCN(c2nccc(Nc3ccc(-c4ccncc4)cc3)n2)CCN1 (centres unmarked) [Example 45, 2-(5-methyl-1,4-diazepan-1-yl)-N-(4-(pyridin-4-yl)phenyl)pyrimidin-4-amine] | 99

same assay, conditions: 9 points 2-fold serial dilution

SMILES | IC50 [µM]
CC1CCN(c2nccc(Nc3ccc(-c4ccncc4)cc3)n2)CCN1 (centres unmarked) [Example 45, 2-(5-methyl-1,4-diazepan-1-yl)-N-(4-(pyridin-4-yl)phenyl)pyrimidin-4-amine] | 0.307
